Assay results taken from patent US20050096360A1, “Inhibitors of semicarbazide-sensitive amine oxidase (SSAO) and VAP-1 mediated adhesion useful for treatment of diseases” (priority 2003, published 2005).
Counter-ions that a name gives are not always drawn.

Assays:
[1] = system: oxazolone-induced colitis in SJL/J mice
Experimental: Oxazolone colitis is induced as described (Fuss I. J. et al. (2002) J. Immunol. 168: 900). Briefly, mice are pre-sensitized by skin epicutaneous application of 3% oxazolone (4-ethoxymethylene-2-phenyl-2oxazolin-5-one, Sigma) in 100% EtOH (150 μl) on day 0, followed by intrarectal administration of 1% oxazolone in 50% EtOH (100 μl) to anesthetized SJL/J male mice on day 5 through a 3.5 F catheter inserted 4 cm proximal to the anal verge. Mice are divided in three treatment groups and injected i.p. twice a day with: PBS and a compound of the invention. Injections are initiated at day 0 and are continued through day 7 or the end of the study.
A study was carried out using the protocol in Example 20 for oxazolone-induced colitis. Injections were initiated at day 0 and were continued through the end of the study. Disease progression was evaluated for 12 days (6 days after intrarectal administration) by monitoring survival rates and body weight, as well as by macroscopic evidence of colitis (i.e. rectal prolapse, colon size, colon weight). (2-phenylallyl)hydrazine was administered at 10 mg/kg, i.p. twice a day, starting on the day of skin pre-sensitization (day 0). […] Kaplan-Meyer survival curves and unpaired t tests were calculated using GraphPad Prism software (San Diego, Calif.).
Thus, animals from a similar study were sacrificed seven days after initial sensitization and their colons removed and fixed in […]. Tissue processing and analysis were performed blindly at a contract laboratory (Pathology Associates, Frederick, Md.). Briefly, after paraffin embedding 5 μm sections were cut and stained with hematoxylin and eosin. Three cross sections were taken from each animal at 1 cm (section 1), 3 cm (section 2), and 6 cm (section 3) from the anus. The degrees of ulceration, inflammation (in mucosa, submucosa, serosa, and outer muscular layers) and epithelial injury (including mucosal and submucosal abscess, submucosal fibrosis, glandular distortion and mucosal and submucosal edema/hemorrhage), were graded semiquantitatively as 0—absent; 1—minimal; 2—mild; 3—moderate; 4—marked. […] Kaplan-Meyer survival curves were calculated using GraphPad Prism software (San Diego, Calif.).

[2] = system: LPS-induced endotoxemia in C57B1/6J female mice; test: LPS-induced endotoxemia and LPS/D-galactosamine shock; format: in vivo; settings: for survival, first 14 hours: LPS 2 mg/kg + D-galactosamine 300 mg/kg i.p., PBS 40%
Experimental: Eight female mice per group received i.p. injections of 5 mg/kg LPS. […] Dexamethasone (3 mg/kg) was administered i.p. at the same time. Blood was collected 1, 2, 4, and 8 hours after LPS injection and circulating TNF-α and IL-6 levels were measured by ELISA (R&D Systems). Asterisk * indicates p<0.01.
Survival data for the first 14 hours is presented.
In sepsis exposure of endothelial cells of all organs to elevated levels of LPS and inflammatory cytokines leads to upregulation of adhesion molecules and chemokines, which results in an increase in the tethering, rolling and transmigration of leukocytes (Pawlinski R. et al. (2004) Blood 103:1342). LPS-induced endotoxemia is a well-characterized model of systemic inflammation and thus can be used to investigate the putative role of SSAO inhibition in these inflammatory mechanisms. Sepsis was induced in C57B1/6J female mice by i.p. administration of 5 mg/kg of LPS. […] Dexamethasone was administered i.p, at a concentration of 3 mg/kg 1 hr prior to disease induction. Blood was drawn from the retroorbital plexus of anesthetized animals and sera was collected and frozen until time of cytokine measurements. IL-1β, TNF-α, and IL-6 concentrations were determined by ELISA using commercial kits (R&D Systems, Minneapolis, Minn.) according to the manufacturer's instructions. […] Data were analyzed with GraphPad Prism software (San Diego, Calif.) by Dunnett's test following analysis of variance. […] 2 mg/kg LPS together with 300 mg/kg D-galactosamine (GalN, Sigma), both dissolved in PBS, were administered to mice by i.p. injection. At the indicated time points animals from the different therapeutic groups received 200 μl of vehicle (PBS) or 30 mg/kg (2-phenylallyl)hydrazine by oral administration.

[3] = system: relapsing EAE in SJL/J mice; test: Chronic relapsing EAE (model of chronic multiple sclerosis); format: in vivo; settings: 10 mg/kg i.p. bid for 53 days
Experimental: An analysis of the use of VAP-1/SSAO inhibitors to treat inflammatory diseases of the CNS is performed through the use of a relapsing experimental autoimmune encephalomyelitis model (EAE) in SJL/J mice.
To examine the role of VAP-1 as a major regulator of lymphocyte recruitment to the CNS, VAP-1/SSAO inhibitor was evaluated in a chronic relapsing EAE model.
Then animals were monitored for signs of paralysis according to a 0-5 scale of scoring system as follows: • 0.5 partial tail weakness • 1 limp tail or waddling gait with tail tonicity; • 1.5 waddling gait with partial tail weakness • 2 waddling gait with limp tail (ataxia); • 2.5 ataxia with partial limb paralysis; • 3 full paralysis of one limb; • 3.5 full paralysis of one limb with partial paralysis of second limb; • 4 full paralysis of two limbs; • 4.5 moribund; • 5 death.
The results are expressed as mean clinical score (FIG. 9A), % incidence (number of mice with any paralysis/10 mice) (FIG. 9B), % mice with chronic disease (mice with at least one relapse) (FIG. 9C), and cumulative total number of relapses (FIG. 9D).

[4] = 10 mg/kg i.p. twice a day from day 0, vs vehicle
[5] = day 7, 20 mg/kg/day from day 0, section 2
[6] = 50 mg/kg orally 60 min prior to 5 mg/kg LPS i.p.

SMILES: C=C(CNN)c1ccccc1 [Example 2, Hydrochloride]
- body weight loss [1, 4]: significantly improved
- survival rates [1, 4]: significantly improved
- inflammatory index (histology) [1, 5]: significant effect
- ulceration index (histology) [1, 5]: significant effect
- levels of circulatory IL-6 [2, 6]: significantly reduced
- levels of circulatory TNF-α [2, 6]: significantly reduced
- survival, first 14 hours ([2]; 30 mg/kg oral at 0 and 8 hours (2×)): 80%
- survival, first 14 hours ([2]; 30 mg/kg oral once (1×)): 60%
- cumulative number of relapses ([3]; p<0.0001 vs buffer): statistically significant reduction
- incidence of chronic disease (mice with at least one relapse) ([3]; p<0.0001 vs buffer): significant lower
- overall clinical severity ([3]; p<0.005 vs buffer): statistically significant reduction
